According to article PMC10144323, “Preparation and Bioevaluation of a Novel ^99mTc-Labeled Glucose Derivative Containing Cyclohexane as a Promising Tumor Imaging Agent” (Pharmaceuticals, 2023):
Read-outs that look alike come from different tables or passages of the source.

Tests used:
[1] = In vitro stability in saline (radio-HPLC radiochemical purity); assay type: physicochemical; conditions: 4 h in saline at room temperature
Experimental: (§1) The in vitro stability of the [^99mTc]Tc-CNMCHDG complex was determined by measuring its radiochemical purity. The labeled [^99mTc]Tc-CNMCHDG complex solution was placed in saline at room temperature for 4 h, and the radiochemical purity of the complex was calculated using radio-HPLC data to determine whether the complex had good stability at room temperature. Then, 100 μL of labeled solution (1.8 MBq) and 200 μL of mouse serum were added to a centrifuge tube, and the tube was placed in an incubator at 37 °C for 4 h. At the end of the incubation, 600 μL of an acetonitrile solvent was added to the centrifuge tube. Subsequently, the supernatant was filtered through a 0.22-μm filter and taken for HPLC analysis after centrifugation.

[2] = In vitro stability in mouse serum (radio-HPLC radiochemical purity); assay type: in vitro ADME; conditions: 4 h in mouse serum at 37 °C
Experimental: as §1

[3] = Determination of the partition coefficient (log P); assay type: physicochemical; conditions: n-octanol / phosphate buffer (0.025 M, pH 7.4)
Experimental: To determine the partition coefficient, 1.4 mL of phosphate buffer (0.025 M, pH 7.4) and 1.5 mL of n-octanol was taken into a 5 mL centrifuge tube, to which 0.1 mL of the [^99mTc]Tc-CNMCHDG solution (2.4 MBq) was added into the centrifuge tube in turn. The solution was then vortexed for 3 min and centrifuged for 3 min (3000 r/min). Then, 0.1 mL was removed from the two phases with a pipette gun, respectively, and the radioactive counts of the two phases were measured and used to calculate the partition coefficient P. The final partition coefficient was expressed as log P ± SD.

A549 tumor cells = assay: In vitro cellular uptake studies; assay type: cell-based, Human; conditions: glucose-free DMEM, 1 h uptake
Experimental: Human alveolar basal epithelial cells from lung cancer cells (A549 cells) were used in in vitro cellular uptake studies. A549 cells in the logarithmic growth phase were collected, prepared in a cell suspension of 3 × 10^5 cells/mL DMEM medium, and seeded into a 24-well plate (1 mL/well). The cells were evenly dispersed in the holes by vibration. Afterwards, the well plate was placed in a 37 °C incubator with 5% CO2 overnight to enable the cells to grow and stick to the bottom of the wells. After the cells were attached to the wells, the medium in the well plate was aspirated and washed with 0.5 mL of glucose-free DMEM medium, followed by the addition of 0.5 mL of glucose-free DMEM for glucose deprivation. One hour later, 0.1 mL of glucose-free medium, D-glucose (2 mg), L-glucose (2 mg) and insulin (2 IU) were added to the wells, respectively, and the cells were preincubated for 15 min. Subsequently, 0.1 mL of [^99mTc]Tc-CNMCHDG complex solution (0.74 MBq) was added to each well, and the volume of the solution in the wells was made up to 1 mL using the glucose-free DMEM. The well plates continued to be incubated in a 37 °C incubator, and after 1 h, the medium was aspirated and washed twice with 0.5 mL of cold PBS solution (0.067 M, pH 7.4). The cells were lysed by adding 0.5 mL of a sodium hydroxide solution (1 M). Finally, the solution was transferred to plastic test tubes, and the radioactivity counts were measured using a γ-counter detector. This procedure was carried out four times for each group.

A549 tumor-bearing mice [4] = assay: Biodistribution in A549 tumor-bearing mice; assay type: in vivo, balb/c nude mice; conditions: for tumor uptake: i.v., n = 3
Experimental: (§2) Animal studies were performed according to the Regulation on Laboratory Animals of the Beijing Municipality and the guidelines of the Ethics Committee of Beijing Normal University (permit no. BNUCC-EAW-2022-001). The A549 tumor-bearing model mice were developed by injecting 2 × 10^6 A549 cells in 0.1 mL of F-12k medium subcutaneously into the armpit of the right upper limb of balb/c nude mice. Similarly, the S180 tumor-bearing model mice were developed by subcutaneously injecting 1 × 10^6 S180 cells in 0.1 mL of saline into the right upper limb of female Kunming mice. The biodistribution of the tumor-bearing mice was determined when the tumor grew to approximately 5 mm after about two weeks of feeding. The A549 tumor mice were injected with 0.1 mL of the radiolabeled [^99mTc]Tc-CNMCHDG or [^99mTc]Tc-CN7DG solution (0.37 MBq) through the tail vein and sacrificed after 30 and 120 min post-injection (n = 3). In addition, to test whether the [^99mTc]Tc-CNMCHDG complex was involved in the glucose transporter mechanism, saline (0.1 mL), 2-deoxy-D-glucose (6 mg per mouse) and insulin (0.25 units per mouse) were injected into S180 tumor mice half an hour before administering the radiolabeled complex, and the mice were sacrificed at 60 min post-injection (n = 5). The organs and tissues of interest, such as heart, liver, lung, kidney, spleen, stomach, bone, intestine and tumor, were dissected, wiped and weighed. Finally, the radioactivity count in these organs and tissues was measured using a γ-counter detector, and the final results were expressed as the percent uptake of injected dose per gram ± the standard deviation (%ID/g ± SD).

S180 tumor-bearing mice = assay: Biodistribution in S180 tumor-bearing mice with pre-treatment (uptake mechanism); assay type: in vivo, female Kunming mice
Experimental: as §2

A549 tumor-bearing mice [5] = assay: SPECT/CT imaging studies; assay type: in vivo
Experimental: The radiolabeled [^99mTc]Tc-CNMCHDG solution (18.5 MBq) was injected into the A549 tumor-bearing mice via the tail vein, and the SPECT imaging study was performed at 2 h post-injection. In the same tumor mice, at the end of radioactive metabolism, the [^99mTc]Tc-CN7DG solution (18.5 MBq) was injected similarly into the same mice through the tail vein. The mice were anesthetized with 1.5% isoflurane and placed on a SPECT/CT scanner for imaging. The imaging scan settings were as follows: CT scan (512 views, 2 × 2 binding, 75 kV) for 15 min, followed by SPECT acquisition (Peak 140 keV, 20% width, 90° rotation, MMP 919 collimator) after 4 min. HiSPECT software and Vivoquant 2.5 software (Trifoil imaging, CA, USA) were used to acquire the SPECT/CT images (n = 3).

[6] = Pharmacokinetic characteristics (blood time-activity); assay type: in vivo; conditions: healthy Kunming female mice
Experimental: Drug and Statistics (DAS) 3.2.8 software was used to calculate the pharmacokinetic parameters and to study the relationship between drug concentration and time based on the results. Time-activity curve of blood of [^99mTc]Tc-CNMCHDG in healthy kunming female mice was shown in Figure 6 and major pharmacokinetics parameters are listed in Table 1. […] In addition, the blood intake values were all lower than 0.1%ID/g at 90 min post-injection. According to the calculation results of the DAS 3.2.8 software, the distribution of [^99mTc]Tc-CNMCHDG in the blood was in accordance with the three-compartment mode.
Forty Kunming female mice were divided into eight groups and injected with 0.1 mL of [^99mTc]Tc-CNMCHDG (0.37 MBq) via tail vein, and were sacrificed at 2, 5, 10, 30, 60, 90, 120 and 240 min after injection, respectively. The blood samples were collected, weighed and counted a γ-counter detector to calculate the%ID/g value. The blood uptake-time curves were generated and analyzed by DAS 3.2.8 software.

[7] = S180 tumor-bearing mice, 60 min post-injection
[8] = blood, three-compartmental modeling (DAS 3.2.8), i.v.
[9] = blood, three-compartmental modeling, i.v.

radiochemical purity after incubation [1]: higher than 90% | radiochemical purity after incubation [2]: higher than 90% | partition coefficient (log P) [3]: −3.65 ± 0.10 | kidney uptake (A549 tumor-bearing mice [4]; 30 min post-injection): 6.54 ± 1.10 %ID/g | liver uptake (A549 tumor-bearing mice [4]; 30 min post-injection): 2.74 ± 0.31 %ID/g | lung uptake (A549 tumor-bearing mice [4]; 30 min post-injection): 1.98 ± 0.31 %ID/g | tumor uptake (A549 tumor-bearing mice [4]; 30 min post-injection): 5.40 ± 0.29 %ID/g | tumor uptake compared to [^99mTc]Tc-CN7DG (A549 tumor-bearing mice [4]; 120 min post-injection): slightly lower | tumor/liver ratio (A549 tumor-bearing mice [4]; 120 min post-injection): 3.24 ± 0.25 | tumor/lung ratio (A549 tumor-bearing mice [4]; 120 min post-injection): 5.41 ± 0.39 | uptake in non-target organs such as liver and lung compared to [^99mTc]Tc-CN7DG (A549 tumor-bearing mice [4]; 120 min post-injection): significantly lower | tumor uptake (A549 tumor-bearing mice [4]; 120 min post-injection): 4.42 ± 0.36 %ID/g | tumor uptake (S180 tumor-bearing mice): 6.30 ± 0.56 %ID/g | tumor uptake (S180 tumor-bearing mice; S180 tumor-bearing mice, 60 min post-injection, pre-treatment with D-glucose, n = 5): 2.64 ± 0.48 %ID/g | tumor uptake (S180 tumor-bearing mice; S180 tumor-bearing mice, 60 min post-injection, saline pre-treatment (control), n = 5): 4.66 ± 0.34 %ID/g | SPECT/CT uptake in non-target areas (liver and kidney) compared to [^99mTc]Tc-CN7DG (A549 tumor-bearing mice [5]; same A549 tumor-bearing mouse, 2 h post-injection): significantly lower | AUC(0-t) [6, 8]: 298.528 %ID/g × min | AUC(0-∞) [6, 8]: 353.484 %ID/g × min | t1/2α (blood distribution half-life) [6, 9]: 0.598 min | t1/2β (elimination half-life, fast chamber) [6, 9]: 10.706 min | t1/2γ (elimination half-life, slow chamber) [6, 9]: 218.932 min | blood uptake value ([6]; 2 min post-injection, i.v., n = 5): 21.22 ± 2.00 %ID/g | blood uptake value ([6]; 30 min post-injection): 1.50 ± 0.15 %ID/g | blood uptake value ([6]; 60 min post-injection): 0.37 ± 0.16 %ID/g | blood intake values ([6]; at 90 min post-injection): lower than 0.1 %ID/g
SMILES: O=C(NC1C(O)OC(CO)C(O)C1O)C1CCC(C[N+]#[C][99Tc+]([C]#[N+]CC2CCC(C(=O)NC3C(O)OC(CO)C(O)C3O)CC2)([C]#[N+]CC2CCC(C(=O)NC3C(O)OC(CO)C(O)C3O)CC2)([C]#[N+]CC2CCC(C(=O)NC3C(O)OC(CO)C(O)C3O)CC2)([C]#[N+]CC2CCC(C(=O)NC3C(O)OC(CO)C(O)C3O)CC2)[C]#[N+]CC2CCC(C(=O)NC3C(O)OC(CO)C(O)C3O)CC2)CC1 (centres unmarked) [[^99mTc]Tc-CNMCHDG]
inhibition of cellular uptake by D-glucose (A549 tumor cells; D-glucose (2 mg) preincubated 15 min, p = 0.009): 29% | change of cellular uptake by L-glucose (A549 tumor cells; L-glucose (2 mg) preincubated 15 min): not significantly changed | increase of cellular uptake after insulin (A549 tumor cells; insulin (2 IU) preincubated 15 min, p = 0.002): 57% | decrease of tumor uptake by D-glucose pre-treatment (S180 tumor-bearing mice; [7]): 43% | increase of tumor uptake by insulin pre-treatment (S180 tumor-bearing mice; [7]): 35% | route of metabolism/excretion in vivo (SPECT/CT signals in bladder and kidney) (A549 tumor-bearing mice [5]; A549 tumor-bearing mouse, 2 h after administration): mainly metabolized through the urine system | visualization of the tumor by SPECT/CT (A549 tumor-bearing mice [5]; A549 tumor-bearing mouse, 2 h after administration, 18.5 MBq i.v.): clearly visualized
